Publication PMC10590419, “Structural and mechanistic insights into the inhibition of respiratory syncytial virus polymerase by a non-nucleoside inhibitor” (Communications Biology, 2023)
pIC50: −log10 of the molar value.

How the values were obtained:
[1] = target: T1, Human DNA polymerase beta (Homo sapiens, UniProt P06746); assay: DNA-dependent DNA polymerase activity; format: biochemical; settings: DNA Pol β
T1 construct: purchased CHIMERx
Description: (§1) to the method described previously 1. A 25 nM solution of RSV MTase-CTD protein or RSV L+P complex was incubated with 0.7 µM or 1.8 µM purified synthetic RNA 5’-Gppp […]
(§2) […] (RSV9) for the MTase-CTD or L+P complex, respectively; 2 µM or 0.17 µM S-adenosyl methionine (SAM) for the MTase-CTD or L–P complex, respectively; and 0.1 µM or 0.8 µM 3H-SAM (Perkin Elmer) for the MTase-CTD or L–P complex, respectively; in 50 mM Tris-HCl pH 8.0. Compounds, previously dissolved in DMSO were added at a final concentration of 50 µM or 200 µM. After 3 h incubation at 30°C, reactions were quenched by a 20-fold dilution in ice cold water. Samples were transferred to DEAE filtermats (Perkin Elmer) using a Filtermat Harvester (Packard Instruments). The RNA-retaining mats were washed twice with 10 mM ammonium formate pH 8.0, twice with water and once with ethanol. They were then soaked with scintillation fluid (Perkin Elmer), and 3H-methyl transfer to the RNA substrates was determined using a Wallac MicroBeta TriLux Liquid Scintillation Counter.
(§3) Cellular polymerase assays
(§4) DNA-dependant DNA polymerase (DdDp) activity
(§5) Human DNA polymerases alpha (CHIMERx) at 5 U/ml, beta (CHIMERx) at 0.5 U/ml and gamma (Abcam) at 0.1 mg/ml were incubated with the tested inhibitors at specified concentrations, and a reaction mix composed of 62 µg/ml activated calf thymus DNA, dGTP (2 µM), dATP (2 µM), dCTP (2 µM), [ 3H]dTTP (0.05 µCi/µl), 0.1 mg/ml BSA and a buffer composed of Tris-HCl pH 8 (50 mM), MgCl 2 (5 mM), KCl (60 mM), and DTT (4 mM.) in a total volume of 50 µl. After 2 hours incubation at 30°C, reaction was terminated by addition of 60 µl of a chilled stop solution composed of 20% (w/v) TCA with 0.5 mM ATP. […] Radioactivity was measured via liquid scintillation counting (MicroScint-20, 40µl) on a TriLux apparatus. […]
(§6) The RNA transcription activity of human mitochondrial RNA polymerase (POLRMT) was measured by the incorporation of radioactively labeled nucleotides by POLRMT into acid-insoluble RNA products as described previously 2. […]

[2] = target: T2, Human DNA polymerase gamma (Homo sapiens, UniProt P54098); assay: DNA-dependent DNA polymerase activity; format: biochemical; settings: DNA Pol γ
T2 construct: purchased Abcam
T2 sequence (P54098 1-1239): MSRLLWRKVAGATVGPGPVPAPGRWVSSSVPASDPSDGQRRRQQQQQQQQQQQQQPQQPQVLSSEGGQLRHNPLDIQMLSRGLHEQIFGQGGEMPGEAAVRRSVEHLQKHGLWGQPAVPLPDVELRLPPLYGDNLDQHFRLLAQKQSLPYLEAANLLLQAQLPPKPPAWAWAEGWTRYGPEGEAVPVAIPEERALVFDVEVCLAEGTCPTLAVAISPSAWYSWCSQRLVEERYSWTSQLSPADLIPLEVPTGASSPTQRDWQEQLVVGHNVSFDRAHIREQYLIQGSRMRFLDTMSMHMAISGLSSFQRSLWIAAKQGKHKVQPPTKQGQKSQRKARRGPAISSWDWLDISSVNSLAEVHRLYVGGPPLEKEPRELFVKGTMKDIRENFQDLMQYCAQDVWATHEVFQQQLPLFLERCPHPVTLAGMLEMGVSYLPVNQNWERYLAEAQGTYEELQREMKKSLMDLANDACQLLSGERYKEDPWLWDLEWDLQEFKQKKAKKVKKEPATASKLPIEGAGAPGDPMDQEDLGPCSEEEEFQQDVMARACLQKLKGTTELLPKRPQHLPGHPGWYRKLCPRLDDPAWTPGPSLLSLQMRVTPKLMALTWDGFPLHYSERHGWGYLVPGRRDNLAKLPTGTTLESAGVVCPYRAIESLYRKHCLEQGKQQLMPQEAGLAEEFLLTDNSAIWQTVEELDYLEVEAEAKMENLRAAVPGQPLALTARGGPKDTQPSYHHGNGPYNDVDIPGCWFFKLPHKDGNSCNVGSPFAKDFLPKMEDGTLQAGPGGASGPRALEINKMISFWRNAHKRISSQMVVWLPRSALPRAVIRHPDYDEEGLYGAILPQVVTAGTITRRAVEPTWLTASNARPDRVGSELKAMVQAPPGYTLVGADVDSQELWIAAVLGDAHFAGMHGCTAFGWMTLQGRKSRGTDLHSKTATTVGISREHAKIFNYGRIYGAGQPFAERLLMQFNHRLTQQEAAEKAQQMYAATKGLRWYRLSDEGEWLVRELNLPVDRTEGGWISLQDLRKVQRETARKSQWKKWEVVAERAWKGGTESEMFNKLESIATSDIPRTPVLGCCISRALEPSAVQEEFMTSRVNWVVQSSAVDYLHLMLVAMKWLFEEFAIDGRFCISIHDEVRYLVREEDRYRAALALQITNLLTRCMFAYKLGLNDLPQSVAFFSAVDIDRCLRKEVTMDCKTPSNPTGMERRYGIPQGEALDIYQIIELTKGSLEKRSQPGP
Description: as §1, §2, §3, §4, §5, §6

With `COc1cc(C(=O)NC[C@](O)(c2cc(C(C)(C)O)c(F)c(-c3ccc(F)cc3)n2)C(F)(F)F)cc2cc(C)nnc12` [JNJ-8003] the pIC50 [1] was less than 4.00 and the pIC50 [2] was less than 4.00.
